Molecules are shown by their SMILES.

This is an account of results in ChEMBL document CHEMBL1145498, “A systematic interaction map of validated kinase inhibitors with Ser/Thr kinases” (Proc Natl Acad Sci U S A, 2007).

Test [1] has as its target Calcium/calmodulin-dependent protein kinase type II subunit alpha (Homo sapiens) (UniProt Q9UQM7).
Test [2] deals with Serine/threonine-protein kinase pim-2 (Homo sapiens, UniProt Q9P1W9).
In test [3] the target is Casein kinase I isoform gamma-2 (Homo sapiens) (UniProt P78368).
Test [4] concerns the target T1, Mitogen-activated protein kinase kinase kinase 5 (Homo sapiens) (UniProt Q99683).
T1 sequence (whole entry): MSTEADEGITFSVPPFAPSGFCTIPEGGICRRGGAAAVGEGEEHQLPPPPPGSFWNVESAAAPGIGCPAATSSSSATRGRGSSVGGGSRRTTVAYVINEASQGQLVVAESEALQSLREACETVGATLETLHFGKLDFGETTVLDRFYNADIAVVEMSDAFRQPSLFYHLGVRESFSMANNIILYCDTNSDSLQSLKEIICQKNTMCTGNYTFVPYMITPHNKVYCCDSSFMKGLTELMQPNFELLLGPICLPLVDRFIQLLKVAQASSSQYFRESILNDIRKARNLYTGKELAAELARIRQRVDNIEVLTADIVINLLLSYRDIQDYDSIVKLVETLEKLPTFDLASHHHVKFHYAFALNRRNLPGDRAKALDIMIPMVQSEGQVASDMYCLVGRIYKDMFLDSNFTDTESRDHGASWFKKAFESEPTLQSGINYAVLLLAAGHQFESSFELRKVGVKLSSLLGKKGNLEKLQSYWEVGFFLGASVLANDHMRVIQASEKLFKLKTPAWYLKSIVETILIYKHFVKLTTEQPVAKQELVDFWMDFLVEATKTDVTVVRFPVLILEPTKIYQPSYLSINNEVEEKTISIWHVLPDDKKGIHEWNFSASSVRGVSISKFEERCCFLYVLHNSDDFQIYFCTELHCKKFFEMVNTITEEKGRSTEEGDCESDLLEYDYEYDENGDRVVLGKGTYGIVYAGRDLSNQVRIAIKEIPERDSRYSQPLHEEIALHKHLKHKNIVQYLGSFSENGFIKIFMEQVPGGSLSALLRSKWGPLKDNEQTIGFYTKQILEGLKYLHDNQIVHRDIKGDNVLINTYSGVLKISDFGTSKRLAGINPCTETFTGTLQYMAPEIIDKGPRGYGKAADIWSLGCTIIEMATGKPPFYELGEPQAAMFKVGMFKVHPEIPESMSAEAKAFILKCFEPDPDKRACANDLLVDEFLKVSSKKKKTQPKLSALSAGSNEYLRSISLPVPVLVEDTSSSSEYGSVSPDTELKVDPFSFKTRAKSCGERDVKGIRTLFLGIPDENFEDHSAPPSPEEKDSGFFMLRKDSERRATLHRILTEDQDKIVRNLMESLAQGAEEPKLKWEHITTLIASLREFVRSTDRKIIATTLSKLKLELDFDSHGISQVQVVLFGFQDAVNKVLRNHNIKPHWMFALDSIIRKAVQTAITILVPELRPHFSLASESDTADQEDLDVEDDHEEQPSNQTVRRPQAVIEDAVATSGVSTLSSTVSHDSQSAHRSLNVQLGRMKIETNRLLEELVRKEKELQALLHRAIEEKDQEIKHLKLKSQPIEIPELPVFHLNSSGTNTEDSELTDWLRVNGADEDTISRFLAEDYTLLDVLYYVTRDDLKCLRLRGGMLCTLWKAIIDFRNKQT

In test [5] the target is Serine/threonine-protein kinase VRK2 (Homo sapiens) (UniProt Q86Y07).
For test [6], the target named is Serine/threonine-protein kinase OSR1 (Homo sapiens) (UniProt O95747).
In test [7] the target is Serine/threonine-protein kinase pim-1 (Homo sapiens) (UniProt P11309).
Test [8] concerns the target Casein kinase I isoform gamma-1 (Homo sapiens) (UniProt Q9HCP0).
The target in test [9] is Cyclin-dependent kinase 6 (Homo sapiens) (UniProt Q00534).
The target of test [10] is Glycogen synthase kinase-3 beta (Homo sapiens, UniProt P49841).
In test [11] the target is Dual specificity protein kinase CLK2 (Homo sapiens) (UniProt P49760).
For test [12], the target named is Mitogen-activated protein kinase 6 (Homo sapiens) (UniProt Q16659).
The target in test [13] is TRAF2 and NCK-interacting protein kinase (Homo sapiens) (UniProt Q9UKE5).
The target of test [14] is T2, Serine/threonine-protein kinase 17A (Homo sapiens) (UniProt Q9UEE5).
T2 sequence (whole entry): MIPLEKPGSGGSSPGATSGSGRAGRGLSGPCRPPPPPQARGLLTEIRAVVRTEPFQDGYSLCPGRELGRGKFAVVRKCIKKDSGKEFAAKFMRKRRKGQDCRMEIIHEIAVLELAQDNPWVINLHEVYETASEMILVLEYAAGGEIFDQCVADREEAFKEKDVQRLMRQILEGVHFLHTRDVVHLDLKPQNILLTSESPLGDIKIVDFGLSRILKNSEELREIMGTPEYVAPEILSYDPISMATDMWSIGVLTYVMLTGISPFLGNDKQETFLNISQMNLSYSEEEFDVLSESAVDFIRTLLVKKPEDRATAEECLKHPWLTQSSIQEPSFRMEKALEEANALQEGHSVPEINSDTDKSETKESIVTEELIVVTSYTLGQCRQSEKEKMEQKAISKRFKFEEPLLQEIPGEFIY

The target in test [15] is Cyclin-dependent kinase-like 1 (Homo sapiens) (UniProt Q00532).
In test [16] the target is Serine/threonine-protein kinase 16 (Homo sapiens) (UniProt O75716).
Test [17] has as its target Serine/threonine-protein kinase 26 (Homo sapiens) (UniProt Q9P289).
Test [18] deals with Serine/threonine-protein kinase PAK 6 (Homo sapiens) (UniProt Q9NQU5).
Test [19] concerns the target Ribosomal protein S6 kinase alpha-3 (Homo sapiens) (UniProt P51812).
For test [20], the target named is Calcium/calmodulin-dependent protein kinase type II subunit beta (Homo sapiens) (UniProt Q13554).
Test [21] concerns the target Cyclin-dependent kinase 2 (Homo sapiens, UniProt P24941).

Sequence of Serine/threonine-protein kinase PAK 6 (Homo sapiens) (Q9NQU5 whole entry, looked up): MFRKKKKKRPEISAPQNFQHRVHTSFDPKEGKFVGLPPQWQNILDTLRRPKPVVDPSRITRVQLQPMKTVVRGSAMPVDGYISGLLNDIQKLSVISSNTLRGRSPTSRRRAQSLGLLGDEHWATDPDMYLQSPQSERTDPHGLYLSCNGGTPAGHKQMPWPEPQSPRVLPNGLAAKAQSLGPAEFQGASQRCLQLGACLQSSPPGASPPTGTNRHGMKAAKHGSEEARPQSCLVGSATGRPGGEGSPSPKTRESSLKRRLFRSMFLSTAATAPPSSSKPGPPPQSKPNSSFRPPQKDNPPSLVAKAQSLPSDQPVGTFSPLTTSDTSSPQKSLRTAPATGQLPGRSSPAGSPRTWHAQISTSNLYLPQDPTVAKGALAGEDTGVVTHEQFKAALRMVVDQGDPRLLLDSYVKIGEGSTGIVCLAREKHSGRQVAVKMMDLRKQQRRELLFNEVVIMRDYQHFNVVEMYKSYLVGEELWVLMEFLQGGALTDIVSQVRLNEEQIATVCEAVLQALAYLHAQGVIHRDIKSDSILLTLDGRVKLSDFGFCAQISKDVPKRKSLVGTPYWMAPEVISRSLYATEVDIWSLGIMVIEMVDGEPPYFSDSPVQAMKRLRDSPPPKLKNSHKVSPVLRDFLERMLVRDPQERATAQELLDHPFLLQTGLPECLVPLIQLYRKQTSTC
Sequence of TRAF2 and NCK-interacting protein kinase (Homo sapiens) (Q9UKE5 whole entry, looked up): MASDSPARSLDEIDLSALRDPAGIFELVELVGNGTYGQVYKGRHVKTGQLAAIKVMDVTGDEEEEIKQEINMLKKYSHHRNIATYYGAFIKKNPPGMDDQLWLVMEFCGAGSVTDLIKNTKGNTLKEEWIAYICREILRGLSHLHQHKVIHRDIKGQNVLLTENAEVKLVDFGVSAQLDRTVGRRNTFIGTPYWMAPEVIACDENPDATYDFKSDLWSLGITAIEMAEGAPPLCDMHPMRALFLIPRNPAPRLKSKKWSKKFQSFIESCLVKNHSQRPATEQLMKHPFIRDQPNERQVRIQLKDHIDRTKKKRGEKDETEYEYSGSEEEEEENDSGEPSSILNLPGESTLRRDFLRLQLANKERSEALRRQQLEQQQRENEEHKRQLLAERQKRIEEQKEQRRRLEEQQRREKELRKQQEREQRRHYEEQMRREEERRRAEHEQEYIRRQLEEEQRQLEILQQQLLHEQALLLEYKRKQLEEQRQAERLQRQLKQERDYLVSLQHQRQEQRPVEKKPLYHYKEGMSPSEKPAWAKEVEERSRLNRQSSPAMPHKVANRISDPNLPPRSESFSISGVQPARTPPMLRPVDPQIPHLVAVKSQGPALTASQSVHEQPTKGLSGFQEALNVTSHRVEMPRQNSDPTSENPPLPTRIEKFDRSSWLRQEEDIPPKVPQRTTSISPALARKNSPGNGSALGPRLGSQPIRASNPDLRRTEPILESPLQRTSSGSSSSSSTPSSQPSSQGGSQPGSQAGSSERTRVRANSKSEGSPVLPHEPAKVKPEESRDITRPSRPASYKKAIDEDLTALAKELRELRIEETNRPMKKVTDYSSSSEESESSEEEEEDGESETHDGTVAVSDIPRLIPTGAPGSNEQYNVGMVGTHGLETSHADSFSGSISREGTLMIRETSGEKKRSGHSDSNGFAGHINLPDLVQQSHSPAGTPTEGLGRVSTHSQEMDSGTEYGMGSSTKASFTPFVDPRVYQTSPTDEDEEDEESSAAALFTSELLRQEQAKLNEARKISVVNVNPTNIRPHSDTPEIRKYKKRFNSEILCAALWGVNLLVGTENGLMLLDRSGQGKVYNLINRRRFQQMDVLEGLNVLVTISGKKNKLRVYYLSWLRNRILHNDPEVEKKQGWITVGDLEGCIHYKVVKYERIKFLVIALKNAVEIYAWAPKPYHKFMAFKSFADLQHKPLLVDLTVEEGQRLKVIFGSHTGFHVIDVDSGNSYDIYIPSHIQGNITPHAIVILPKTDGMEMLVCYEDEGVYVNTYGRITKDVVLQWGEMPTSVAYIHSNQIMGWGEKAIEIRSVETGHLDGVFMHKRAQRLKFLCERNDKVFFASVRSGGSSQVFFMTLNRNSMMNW
Sequence of Calcium/calmodulin-dependent protein kinase type II subunit beta (Homo sapiens) (Q13554 whole entry): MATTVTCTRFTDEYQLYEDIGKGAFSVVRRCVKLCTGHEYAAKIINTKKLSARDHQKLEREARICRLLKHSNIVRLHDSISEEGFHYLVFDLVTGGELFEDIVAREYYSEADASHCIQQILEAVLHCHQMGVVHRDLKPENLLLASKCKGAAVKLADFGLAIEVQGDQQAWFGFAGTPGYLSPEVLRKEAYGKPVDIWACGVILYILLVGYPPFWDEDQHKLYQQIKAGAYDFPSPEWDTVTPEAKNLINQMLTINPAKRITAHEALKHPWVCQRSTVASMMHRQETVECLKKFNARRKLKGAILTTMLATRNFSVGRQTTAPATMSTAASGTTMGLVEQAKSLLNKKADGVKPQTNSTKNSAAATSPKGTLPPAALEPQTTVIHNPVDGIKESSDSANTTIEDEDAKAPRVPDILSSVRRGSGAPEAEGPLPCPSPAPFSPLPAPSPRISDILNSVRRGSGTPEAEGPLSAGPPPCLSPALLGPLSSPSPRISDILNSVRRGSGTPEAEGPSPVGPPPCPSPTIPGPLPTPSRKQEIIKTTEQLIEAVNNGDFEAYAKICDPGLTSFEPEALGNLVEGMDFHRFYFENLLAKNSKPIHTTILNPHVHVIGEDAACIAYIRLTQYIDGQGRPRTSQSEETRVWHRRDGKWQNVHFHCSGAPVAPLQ
Sequence of Casein kinase I isoform gamma-1 (Homo sapiens) (Q9HCP0 whole entry, looked up, canonical isoform): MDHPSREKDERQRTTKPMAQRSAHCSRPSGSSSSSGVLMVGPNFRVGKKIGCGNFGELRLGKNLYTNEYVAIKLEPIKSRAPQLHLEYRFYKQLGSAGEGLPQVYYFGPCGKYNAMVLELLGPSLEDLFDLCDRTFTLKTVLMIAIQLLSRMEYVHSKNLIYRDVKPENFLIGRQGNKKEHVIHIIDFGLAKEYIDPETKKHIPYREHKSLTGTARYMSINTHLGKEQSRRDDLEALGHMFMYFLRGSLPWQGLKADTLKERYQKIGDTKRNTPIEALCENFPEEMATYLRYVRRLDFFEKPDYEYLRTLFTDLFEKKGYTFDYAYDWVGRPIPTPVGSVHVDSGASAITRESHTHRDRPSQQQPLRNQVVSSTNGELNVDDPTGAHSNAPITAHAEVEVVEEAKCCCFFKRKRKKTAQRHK
Sequence of Serine/threonine-protein kinase pim-1 (Homo sapiens) (P11309 whole entry, looked up, canonical isoform): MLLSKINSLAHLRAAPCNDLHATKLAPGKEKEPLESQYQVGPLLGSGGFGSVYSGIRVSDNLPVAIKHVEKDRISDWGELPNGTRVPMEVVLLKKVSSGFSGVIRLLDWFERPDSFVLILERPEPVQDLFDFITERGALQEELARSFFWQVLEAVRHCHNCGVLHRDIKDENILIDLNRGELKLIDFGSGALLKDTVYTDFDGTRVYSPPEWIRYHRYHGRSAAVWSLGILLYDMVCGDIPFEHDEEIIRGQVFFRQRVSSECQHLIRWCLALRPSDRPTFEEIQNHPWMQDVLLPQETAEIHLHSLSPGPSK
Sequence of Serine/threonine-protein kinase VRK2 (Homo sapiens) (Q86Y07 whole entry): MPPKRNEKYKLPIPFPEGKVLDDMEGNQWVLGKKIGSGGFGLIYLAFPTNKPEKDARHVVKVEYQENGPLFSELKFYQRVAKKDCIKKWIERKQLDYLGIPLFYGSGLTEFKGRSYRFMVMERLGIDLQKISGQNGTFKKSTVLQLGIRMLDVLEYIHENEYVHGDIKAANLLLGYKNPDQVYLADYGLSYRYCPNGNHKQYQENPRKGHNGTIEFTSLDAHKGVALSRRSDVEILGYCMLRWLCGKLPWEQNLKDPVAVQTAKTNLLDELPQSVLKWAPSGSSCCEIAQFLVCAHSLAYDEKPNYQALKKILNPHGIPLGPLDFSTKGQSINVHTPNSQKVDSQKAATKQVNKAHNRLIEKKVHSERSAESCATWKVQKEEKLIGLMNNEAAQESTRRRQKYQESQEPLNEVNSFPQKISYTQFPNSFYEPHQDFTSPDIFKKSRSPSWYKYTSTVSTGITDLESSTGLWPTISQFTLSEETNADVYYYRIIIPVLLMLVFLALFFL
Sequence of Serine/threonine-protein kinase pim-2 (Q9P1W9 whole entry, looked up, canonical isoform): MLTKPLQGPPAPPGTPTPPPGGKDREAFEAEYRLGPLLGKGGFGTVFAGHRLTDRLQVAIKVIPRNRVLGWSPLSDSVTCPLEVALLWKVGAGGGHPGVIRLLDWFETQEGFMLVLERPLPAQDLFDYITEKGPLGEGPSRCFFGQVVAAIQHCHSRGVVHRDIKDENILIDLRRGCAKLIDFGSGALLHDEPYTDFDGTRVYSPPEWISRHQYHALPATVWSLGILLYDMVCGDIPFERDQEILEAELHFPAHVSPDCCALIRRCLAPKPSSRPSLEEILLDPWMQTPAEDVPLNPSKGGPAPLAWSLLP
Sequence of Ribosomal protein S6 kinase alpha-3 (Homo sapiens) (P51812 whole entry): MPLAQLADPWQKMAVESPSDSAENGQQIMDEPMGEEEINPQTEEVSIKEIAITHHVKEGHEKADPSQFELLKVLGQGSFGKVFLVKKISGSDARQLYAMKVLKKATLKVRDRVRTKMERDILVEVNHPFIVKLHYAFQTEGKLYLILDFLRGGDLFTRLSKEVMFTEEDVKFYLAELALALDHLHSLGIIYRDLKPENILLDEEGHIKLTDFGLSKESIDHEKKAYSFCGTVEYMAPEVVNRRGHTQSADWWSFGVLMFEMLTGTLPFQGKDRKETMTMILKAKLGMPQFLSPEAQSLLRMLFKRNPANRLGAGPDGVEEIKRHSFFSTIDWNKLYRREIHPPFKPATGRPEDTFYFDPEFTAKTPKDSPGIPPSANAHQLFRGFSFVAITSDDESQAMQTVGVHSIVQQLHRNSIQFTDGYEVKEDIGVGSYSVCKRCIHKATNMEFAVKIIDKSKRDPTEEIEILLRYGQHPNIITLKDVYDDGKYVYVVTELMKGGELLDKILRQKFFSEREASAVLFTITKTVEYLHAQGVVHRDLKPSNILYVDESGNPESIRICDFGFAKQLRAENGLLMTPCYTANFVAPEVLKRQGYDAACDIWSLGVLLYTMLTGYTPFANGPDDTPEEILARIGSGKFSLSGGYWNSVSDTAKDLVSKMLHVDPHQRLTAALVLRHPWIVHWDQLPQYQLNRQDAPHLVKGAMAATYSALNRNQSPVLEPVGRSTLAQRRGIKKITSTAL

`COc1ccc2c(c1)/C(=C/c1cnc[nH]1)C(=O)N2` [SU-9516]: the ΔTm was determined as 1 °C in [1]; 1.7 °C in test [2]; 0.7 °C in [3]; 5.4 °C in test [4]; 0.7 °C in test [5]; 1.3 °C in [6]. Further, the ΔTm in test [7] turned out to be 1.3 °C; in test [8] it was 1 °C; in [9], 3 °C; in test [10], 8.7 °C; in test [11], 3.2 °C; in test [12] it was 0.2 °C. Moreover, the ΔTm amounted to 5.7 °C in test [13]; 9.8 °C in test [14]; 5.8 °C in test [15]; 4.4 °C in test [16]; 4.2 °C in test [17]; 2.3 °C in test [18].
Consider `CC[C@H](CO)Nc1nc(NCc2ccccc2)c2ncn(C(C)C)c2n1` [SELICICLIB], for which the ΔTm in test [2] came out at 0.3 °C; in test [19] it was 1.4 °C; in [4] it was 1 °C; in [5], 2.1 °C; in test [20] it was 0.3 °C; in test [6] it was 1 °C. The thermal shift (ΔTm) in test [7] is -1 °C; in test [9], 0.2 °C; in test [10], 0.4 °C; in test [11], 2.3 °C; in test [12] it was -0.4 °C; in test [13], 0.4 °C. The ΔTm in [14] is -0.5 °C; in test [15], 0.2 °C; in test [17], 0.6 °C; in test [18], 0.5 °C.
Take `O=C1Nc2ccccc2/C1=C\c1ccc[nH]1`: the ΔTm in test [1] was 1.2 °C; in test [2], 0.8 °C; in [3] it was 1.6 °C; in test [4], 5.2 °C; in test [5], 3.4 °C; in test [20], 0.6 °C. The ΔTm in test [6] turned out to be 2.7 °C; in [7], 0.1 °C; in test [8], 1.4 °C; in [9], 2.6 °C; in test [10] it was 3.3 °C; in test [11] it was 2.1 °C. Further, the ΔTm in test [21] is 3.4 °C; in test [12] it was -0.1 °C; in [13], 6.2 °C; in test [14], 11 °C; in [15], 1.4 °C; in [16] it was 4.3 °C. The ΔTm in [17] amounted to 3.5 °C; in test [18] it was 1.6 °C.
For the molecule `NS(=O)(=O)c1ccc(Nc2nc(OCC3CCCCC3)c3nc[nH]c3n2)cc1`, the ΔTm worked out at 0.6 °C in test [1]; 0.6 °C in test [2]; 1.4 °C in test [19]; 2.5 °C in test [3]; 2.4 °C in test [4]; 0.6 °C in [5]. The ΔTm turned out to be 0.6 °C in test [20]; 1 °C in test [6]; 0.4 °C in test [7]; 2.6 °C in test [8]; 4.9 °C in [9]; 4.3 °C in test [10]. Besides, the ΔTm is 2.7 °C in test [11]; 1 °C in test [12]; -0.3 °C in test [13]; 1.8 °C in test [14]; 0.6 °C in test [15]; 4.4 °C in test [16]. In addition, the results for the ΔTm in [17] and in [18] were 2.9 °C and 1.7 °C, respectively.
Regarding `Oc1cc(O)cc(/C=C/c2ccc(O)c(O)c2)c1` [PICEATANNOL], the ΔTm in [1] was 0.8 °C; in test [2], 2 °C; in test [3], 0.2 °C; in test [4], -0.6 °C; in [5], -0.4 °C; in [20], -0.2 °C. For the same molecule, the ΔTm worked out at 1.6 °C in test [6]; 3.2 °C in test [7]; 0 °C in test [8]; 0.3 °C in test [9]; 0.8 °C in test [10]; 0.6 °C in [11]. Also, the ΔTm in test [21] is 1.2 °C; in test [12] it was 0.9 °C; in test [13] it was 0.4 °C; in test [14], 0.3 °C; in test [15] it was -0.2 °C; in [16] it was 4.4 °C. In addition, the shift in melting temperature (ΔTm) is 0.9 °C in test [17] and 0.5 °C in test [18].
For the molecule `Brc1c(Br)c(Br)c2[nH]nnc2c1Br` [TETRABROMOBENZOTRIAZOLE], the ΔTm in test [1] is 1.2 °C; in test [2] it was 4.2 °C; in [19], 1.7 °C; in [3] it was 0.3 °C; in test [4], 1.9 °C; in [5] it was -0.5 °C. The thermal shift (ΔTm) in test [20] is 1.2 °C; in [6] it was 2.1 °C; in [7], 3.7 °C; in [8], -0.4 °C; in test [9] it was 0.3 °C; in test [10], 2.4 °C. Further, the ΔTm in test [11] is 2.4 °C; in [12] it was -0.2 °C; in [13], -0.8 °C; in [14], 4.1 °C; in [15], -0.4 °C; in [16] it was 1.1 °C. Moreover, the figures for the ΔTm in test [17] and in test [18] were 1.2 °C and -0.1 °C, respectively.
With `Cn1cnc2c(NCc3ccccc3)nc(NCCO)nc21` [OLOMOUCINE], the ΔTm in test [1] was -0.3 °C; in test [2], 0.1 °C; in [19], -0.2 °C; in test [3], 0.5 °C; in test [4], 0.1 °C; in test [5], 0.2 °C. The ΔTm in test [20] is 0.2 °C; in test [6], 0.2 °C; in [7] it was -1 °C; in [8] it was 0.1 °C; in [9] it was 0 °C; in test [10], 0.1 °C. Moreover, the ΔTm is 0.1 °C in test [11]; 0.2 °C in test [12]; 0.3 °C in test [13]; -0.1 °C in test [14]; 0 °C in test [15]; 0.7 °C in test [16]. The results for the ΔTm in [17] and in test [18] were 0.2 °C and -0.5 °C, respectively.

As a reminder, the ΔTm is the change in melting temperature against a reference sample.
